Experimental data as given in ChEMBL document CHEMBL3272184.

How the values were obtained:
[1] = target: T1, Catechol O-methyltransferase (Rattus norvegicus) (UniProt P22734); assay: Inhibition of Sprague-Dawley rat liver catechol O-methyltransferase using 24 to 210 uM S-adenosylmethionine substrate
T1 sequence (whole entry): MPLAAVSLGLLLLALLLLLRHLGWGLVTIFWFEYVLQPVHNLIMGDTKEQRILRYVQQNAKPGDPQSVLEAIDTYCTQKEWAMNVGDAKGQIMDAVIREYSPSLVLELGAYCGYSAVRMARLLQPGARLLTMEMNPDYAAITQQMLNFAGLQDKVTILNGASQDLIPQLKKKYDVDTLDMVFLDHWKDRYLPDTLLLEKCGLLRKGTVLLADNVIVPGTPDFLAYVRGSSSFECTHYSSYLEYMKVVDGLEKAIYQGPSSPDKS

[2] = target: T2, Phenylethanolamine N-methyltransferase (Bos taurus) (UniProt P10938); assay: Inhibition of bovine adrenal medulla phenylethanolamine N-methyltransferase using 24 to 210 uM S-adenosylmethionine substrate
T2 sequence (whole entry): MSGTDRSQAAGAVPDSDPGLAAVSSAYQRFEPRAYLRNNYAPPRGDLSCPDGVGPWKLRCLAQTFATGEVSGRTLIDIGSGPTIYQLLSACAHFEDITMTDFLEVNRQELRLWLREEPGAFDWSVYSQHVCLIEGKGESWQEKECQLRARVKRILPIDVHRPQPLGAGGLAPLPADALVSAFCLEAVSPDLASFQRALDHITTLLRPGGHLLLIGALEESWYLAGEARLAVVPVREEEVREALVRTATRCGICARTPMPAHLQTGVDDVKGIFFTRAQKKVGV

[3] = target: T3, Acetylserotonin O-methyltransferase (Bos taurus) (UniProt P10950); assay: Inhibition of bovine pineal gland hydroxyindole O-methyltransferase using 24 to 210 uM S-adenosylmethionine substrate
T3 sequence (whole entry): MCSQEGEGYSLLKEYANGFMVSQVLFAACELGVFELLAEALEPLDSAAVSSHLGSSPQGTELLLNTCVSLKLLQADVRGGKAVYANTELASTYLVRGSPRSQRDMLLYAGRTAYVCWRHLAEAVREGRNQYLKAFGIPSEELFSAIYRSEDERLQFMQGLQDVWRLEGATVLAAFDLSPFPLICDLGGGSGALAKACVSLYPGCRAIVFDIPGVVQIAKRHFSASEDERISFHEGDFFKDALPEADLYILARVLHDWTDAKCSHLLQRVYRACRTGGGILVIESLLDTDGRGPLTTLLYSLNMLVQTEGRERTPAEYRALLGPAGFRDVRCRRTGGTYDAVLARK

Row | Compound | Kis [1] [µM] | Kis [2] [µM] | Kis [3] [µM]
1 | Nc1ncnc2c1ncn2[C@@H]1O[C@H](CSCC[C@H](N)C(=O)O)[C@@H](O)[C@H]1O | 36.3 | 29 | 18.5
2 | Nc1ncnc2c1ncn2[C@@H]1C[C@@H](CSCC[C@H](N)C(=O)O)[C@@H](O)[C@H]1O |  |  | 51.8
